According to US9586931B2 (Merck Sharp & Dohme Corp., priority 2012, dated 2017):
Structures can show the parent of a compound that is named as a salt.

Each compound was assayed against T1, recombinant human GST-Syk (Homo sapiens, UniProt P43405) (assay: Homogeneous Time-Resolved Fluorescence (HTRF) assay for the recombinant human Syk enzyme). Conditions: recombinant human GST-Syk 5 pM, ATP 25 μM, 10-dose titration 10 μM to 0.508 nM; read-out: rhSYK Activity IC50.
T1 construct: purchased Carna Biosciences 08-176
Assay type: biochemical
How it was run: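 GST-hSyk fusion protein phosphorylated a peptide for 45 min at room temperature. The reaction was quenched with 2 nM Eu-anti-phosphotyrosine antibody and 70 nM SA-APC in 15 mM Tris pH 7.5, 40 mM EDTA, 0.01% Tween 20. The HTRF signal was read after 30 min.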

**Q.** `Cc1cc(Nc2nccc(C(F)F)n2)cc(-c2cn(C3CCCC(C)(O)C3O)nn2)c1` (single isomer, unassigned) [Example 29.3, 3-(4-(3-((4-(Difluoromethyl)pyrimidin-2-yl)amino)-5-methylphenyl)-1H-1,2,3-triazol-1-yl)-1-methylcyclohexane-1,2-diol] was tested. Which IC50 did it give?
**A.** 10.5 nM

**Q.** `Cc1cc(Nc2nccc(C(F)F)n2)cc(-c2cn(C(C)C(C)(O)CO)nn2)c1` (single isomer, unassigned) [Example 30.1, 3-(4-(3-((4-(Difluoromethyl)pyrimidin-2-yl)amino)-5-methylphenyl)-1H-1,2,3-triazol-1-yl)-2-methylbutane-1,2-diol] was tested. Which IC50 did it give?
**A.** 12.4 nM

**Q.** `Cc1cc(Nc2nccc(C(F)F)n2)cc(-c2cn(C(C)C(C)(O)CO)nn2)c1` (single isomer, unassigned) [Example 30.2, 3-(4-(3-((4-(Difluoromethyl)pyrimidin-2-yl)amino)-5-methylphenyl)-1H-1,2,3-triazol-1-yl)-2-methylbutane-1,2-diol] was tested. Which IC50 did it give?
**A.** 6.3 nM

**Q.** `Cc1cc(Nc2nccc(C(F)F)n2)cc(-c2cn(C(C)C(C)(O)CO)nn2)c1` (single isomer, unassigned) [Example 30.3, 3-(4-(3-((4-(Difluoromethyl)pyrimidin-2-yl)amino)-5-methylphenyl)-1H-1,2,3-triazol-1-yl)-2-methylbutane-1,2-diol] was tested. Which IC50 did it give?
**A.** 8 nM

**Q.** Which IC50 does the source give for `Cc1cc(Nc2nccc(C(F)F)n2)cc(-c2cn(C(C)C(C)(O)CO)nn2)c1` (single isomer, unassigned) [Example 30.4, 3-(4-(3-((4-(Difluoromethyl)pyrimidin-2-yl)amino)-5-methylphenyl)-1H-1,2,3-triazol-1-yl)-2-methylbutane-1,2-diol] here?
**A.** 11.4 nM

**Q.** Which IC50 does the source give for `Cc1cc(Nc2cc(C(F)F)ccn2)nc(-c2cn(C(C)C(C)(O)CO)nn2)c1` (single isomer, unassigned) [Example 30.5, 3-[4-(6-{[4-(difluoromethyl)pyridin-2-yl]amino}-4-methylpyridin-2-yl)-1H-1,2,3-triazol-1-yl]-2-methylbutane-1,2-diol] here?
**A.** 2.7 nM

**Q.** Which IC50 does the source give for `Cc1cc(Nc2cc(C(F)F)ccn2)nc(-c2cn(C(C)C(C)(O)CO)nn2)c1` (single isomer, unassigned) [Example 30.6, 3-[4-(6-{[4-(difluoromethyl)pyridin-2-yl]amino}-4-methylpyridin-2-yl)-1H-1,2,3-triazol-1-yl]-2-methylbutane-1,2-diol] here?
**A.** 6.5 nM

**Q.** `Cc1cc(Nc2cc(C(F)F)ccn2)nc(-c2cn(C(C)C(C)(O)CO)nn2)c1` (single isomer, unassigned) [Example 30.7, 3-[4-(6-{[4-(difluoromethyl)pyridin-2-yl]amino}-4-methylpyridin-2-yl)-1H-1,2,3-triazol-1-yl]-2-methylbutane-1,2-diol] was tested. Which IC50 did it give?
**A.** 1.4 nM

**Q.** For `Cc1cc(Nc2cc(C(F)F)ccn2)nc(-c2cn(C(C)C(C)(O)CO)nn2)c1` (single isomer, unassigned) [Example 30.8, 3-[4-(6-{[4-(difluoromethyl)pyridin-2-yl]amino}-4-methylpyridin-2-yl)-1H-1,2,3-triazol-1-yl]-2-methylbutane-1,2-diol], which IC50 is on record?
**A.** 1.2 nM

**Q.** `Cc1cc(Nc2nccc(C(F)F)n2)cc(-c2cn(CC3(O)CNC(=O)C3)nn2)c1` (single isomer, unassigned) [Example 31.1, 4-((4-(3-((4-(Difluoromethyl)pyrimidin-2-yl)amino)-5-methylphenyl)-1H-1,2,3-triazol-1-yl)methyl)-4-hydroxypyrrolidin-2-one] was tested. Which IC50 did it give?
**A.** 7.3 nM

**Q.** With `Cc1cc(Nc2nccc(C(F)F)n2)cc(-c2cn(CC3(O)CNC(=O)C3)nn2)c1` (single isomer, unassigned) [Example 31.2, 4-((4-(3-((4-(Difluoromethyl)pyrimidin-2-yl)amino)-5-methylphenyl)-1H-1,2,3-triazol-1-yl)methyl)-4-hydroxypyrrolidin-2-one] as the compound, how does the IC50 read?
**A.** 4.7 nM

**Q.** With `Cc1cc(Nc2cc(C(F)(F)F)ccn2)nc(-c2cn(-c3ccc(Br)cn3)nn2)c1` [6.2] as the compound, how does the IC50 read?
**A.** 1130 nM

**Q.** Which IC50 does the source give for `COC(=O)CNC(=O)[C@H](C)n1cc(-c2cc(C)cc(Nc3cc(C(F)(F)F)ccn3)n2)nn1` [Example 1.1, Methyl N-{(2S)-2-[4-(4-methyl-6-{[4-(trifluoromethyl)pyridin-2-yl]amino}pyridin-2-yl)-1H-1,2,3-triazol-1-yl]propanoyl}glycinate trifluoroacetate] here?
**A.** 76.3 nM

**Q.** Which IC50 does the source give for `Cc1cc(Nc2cc(C(F)(F)F)ccn2)nc(-c2cn(CCC(N)=O)nn2)c1` [Example 1.3, 3-[4-(4-methyl-6-{[4-(trifluoromethyl)pyridin-2-yl]amino}pyridin-2-yl)-1H-1,2,3-triazol-1-yl]propanamide] here?
**A.** 3.8 nM

**Q.** `Cc1cc(Nc2cc(C(F)(F)F)ccn2)nc(-c2cn(C(CO)c3ccc(C(N)=O)cc3)nn2)c1` (stereo not drawn) [Example 1.9, 4-{2-hydroxy-1-[4-(4-methyl-6-{[4-(trifluoromethyl)pyridin-2-yl]amino}pyridin-2-yl)-1H-1,2,3-triazol-1-yl]ethyl}benzamide] was tested. Which IC50 did it give?
**A.** 2.9 nM

**Q.** `Cc1cc(Nc2cc(C(F)(F)F)ccn2)nc(-c2cn(CC(O)c3ccc(C(N)=O)cc3)nn2)c1` (stereo not drawn) [Example 1.10, 4-{1-hydroxy-2-[4-(4-methyl-6-{[4-(trifluoromethyl)pyridin-2-yl]amino}pyridin-2-yl)-1H-1,2,3-triazol-1-yl]ethyl}benzamide] was tested. Which IC50 did it give?
**A.** 6.3 nM

**Q.** `Cc1cc(Nc2cc(C(F)(F)F)ccn2)nc(-c2cn(C3CCC(C(N)=O)c4ccccc43)nn2)c1` (stereo not drawn) [Example 1.11, 4-[4-(4-methyl-6-{[4-(trifluoromethyl)pyridin-2-yl]amino}pyridin-2-yl)-1H-1,2,3-triazol-1-yl]-1,2,3,4-tetrahydronaphthalene-1-carboxamide] was tested. Which IC50 did it give?
**A.** 20.3 nM

**Q.** Which IC50 does the source give for `Cc1cc(Nc2cc(C(F)(F)F)ccn2)nc(-c2cn(CC(C)(O)C(N)=O)nn2)c1` (stereo not drawn) [Example 1.12, 2-hydroxy-2-methyl-3-[4-(4-methyl-6-{[4-(trifluoromethyl)pyridin-2-yl]amino}pyridin-2-yl)-1H-1,2,3-triazol-1-yl]propanamide] here?
**A.** 4.9 nM

**Q.** `Cc1cc(Nc2cc(C(F)(F)F)ccn2)nc(-c2cn(C[C@H](O)C(N)=O)nn2)c1` [Example 1.13, (2S)-2-hydroxy-3-[4-(4-methyl-6-{[4-(trifluoromethyl)pyridin-2-yl]amino}pyridin-2-yl)-1H-1,2,3-triazol-1-yl]propanamide] was tested. Which IC50 did it give?
**A.** 3.4 nM

**Q.** For `Cc1cc(Nc2cc(C(F)(F)F)ccn2)nc(-c2cn(C[C@@H](O)C(N)=O)nn2)c1` [Example 1.14, (2R)-2-hydroxy-3-[4-(4-methyl-6-{[4-(trifluoromethyl)pyridin-2-yl]amino}pyridin-2-yl)-1H-1,2,3-triazol-1-yl]propanamide], which IC50 is on record?
**A.** 9.1 nM

**Q.** `Cc1cc(Nc2cc(C(F)(F)F)ccn2)nc(-c2cn(-c3ccc(C(N)=O)cc3)nn2)c1` [Example 1.15, 4-[4-(4-methyl-6-{[4-(trifluoromethyl)pyridin-2-yl]amino}pyridin-2-yl)-1H-1,2,3-triazol-1-yl]benzamide] was tested. Which IC50 did it give?
**A.** 15.4 nM

**Q.** How did the IC50 turn out when `Cc1cc(Nc2cc(C(F)(F)F)ccn2)nc(-c2cn(C(C)c3ccc(C(N)=O)cc3)nn2)c1` (stereo not drawn) [Example 1.16, 4-{1-[4-(4-methyl-6-{[4-(trifluoromethyl)pyridin-2-yl]amino}pyridin-2-yl)-1H-1,2,3-triazol-1-yl]ethyl}benzamide] was run?
**A.** 13.3 nM

**Q.** `Cc1cc(Nc2cc(C(F)(F)F)ccn2)nc(-c2cn(C(C(N)=O)c3ccc(F)cc3)nn2)c1` (stereo not drawn) [Example 1.17, 2-(4-fluorophenyl)-2-[4-(4-methyl-6-{[4-(trifluoromethyl)pyridin-2-yl]amino}pyridin-2-yl)-1H-1,2,3-triazol-1-yl]acetamide] was tested. Which IC50 did it give?
**A.** 4.4 nM

**Q.** How did the IC50 turn out when `Cc1cc(Nc2cc(C(F)(F)F)ccn2)nc(-c2cn(C(C(N)=O)c3ccccc3)nn2)c1` (stereo not drawn) [Example 1.18, 2-[4-(4-methyl-6-{[4-(trifluoromethyl)pyridin-2-yl]amino}pyridin-2-yl)-1H-1,2,3-triazol-1-yl]-2-phenylacetamide] was run?
**A.** 11.8 nM

**Q.** `Cc1cc(Nc2cc(C(F)(F)F)ccn2)nc(-c2cn([C@H](C)C(=O)N3CCC[C@H]3C(N)=O)nn2)c1` [Example 1.19, 1-{(2R)-2-[4-(4-methyl-6-{[4-(trifluoromethyl)pyridin-2-yl]amino}pyridin-2-yl)-1H-1,2,3-triazol-1-yl]propanoyl}prolinamide] was tested. Which IC50 did it give?
**A.** 123 nM

**Q.** Which IC50 does the source give for `Cc1cc(Nc2cc(C(F)(F)F)ccn2)nc(-c2cn([C@@H](C)C(=O)N3CCC[C@H]3C(N)=O)nn2)c1` [Example 1.20, 1-{(2S)-2-[4-(4-methyl-6-{[4-(trifluoromethyl)pyridin-2-yl]amino}pyridin-2-yl)-1H-1,2,3-triazol-1-yl]propanoyl}prolinamide] here?
**A.** 87.2 nM

**Q.** Which IC50 does the source give for `Cc1cc(Nc2cc(C(F)(F)F)ccn2)nc(-c2cn([C@H](C)C(=O)NCC(N)=O)nn2)c1` [Example 1.21, (2R)-N-(2-amino-2-oxoethyl)-2-[4-(4-methyl-6-{[4-(trifluoromethyl)pyridin-2-yl]amino}pyridin-2-yl)-1H-1,2,3-triazol-1-yl]propanamide] here?
**A.** 23.1 nM

**Q.** How did the IC50 turn out when `Cc1cc(Nc2cc(C(F)(F)F)ccn2)nc(-c2cn([C@@H](C)C(=O)NCC(N)=O)nn2)c1` [Example 1.22, (2S)-N-(2-amino-2-oxoethyl)-2-[4-(4-methyl-6-{[4-(trifluoromethyl)pyridin-2-yl]amino}pyridin-2-yl)-1H-1,2,3-triazol-1-yl]propanamide] was run?
**A.** 22.8 nM

**Q.** `Cc1cc(Nc2cc(C(F)(F)F)ccn2)nc(-c2cn([C@H](C)C(N)=O)nn2)c1` [Example 1.23, (2R)-2-[4-(4-methyl-6-{[4-(trifluoromethyl)pyridin-2-yl]amino}pyridin-2-yl)-1H-1,2,3-triazol-1-yl]propanamide] was tested. Which IC50 did it give?
**A.** 6.8 nM

**Q.** Which IC50 does the source give for `Cc1cc(Nc2cc(C(F)(F)F)ccn2)nc(-c2cn([C@@H](C)C(N)=O)nn2)c1` [Example 1.24, (2S)-2-[4-(4-methyl-6-{[4-(trifluoromethyl)pyridin-2-yl]amino}pyridin-2-yl)-1H-1,2,3-triazol-1-yl]propanamide] here?
**A.** 14.2 nM
